Reference: patent publication US9567329B2, “High penetration prodrug compositions of 1H-imidazo[4,5-c]quinolin-4-amines and 1H-imidazo[4,5-c]quinolin-4-amine-related compounds and uses thereof” (Techfields Pharma Co., Ltd, priority 2007, dated 2017)

Assays:
[1] = In vitro penetration rate across human skin in modified Franz cells; type: in vitro ADME; conditions: for In vitro Penetration Rate of HPPs (apparent flux): 3% solution in ethanol/pH 7.4 phosphate buffer (0.2 M) 70/30
Experimental: Penetration rates of HPPs and their parent drugs through human skin were measured in vitro by modified Franz cells. A Franz cell had two chambers, the top sample chamber and the bottom receiving chamber. The human skin tissue (360-400 μm thick) that separated the top and the receiving chambers was isolated from the anterior or posterior thigh areas.
A compound tested (0.5 mL, 3% in a mixture of ethanol and phosphate buffer (0.2M, pH 7.4) (v/v, 70/30)) was added to the sample chamber of a Franz cell. The receiving chamber contains 2 ml of 2% bovine serum albumin in saline which was stirred at 600 rpm. The amount of the tested compound penetrating the skin was determined by high-performance liquid chromatography (HPLC) method.
The lowest detectable apparent flux values in this method was 1 μg/cm^2/h.

[2] = tested on: herpes simplex virus Type II; assay: Anti-Herpes activity, treated for 3 days before HSV infection; type: in vivo; conditions: guinea pigs
Experimental: (§1) The evaluation of anti-Herpes activity of these prodrugs was carried out using the method described by Kern, et al. [Antimicrob. Agents Chemother. 14, 817, (1978)]. In each experiment, female guinea pigs (n=10) were anesthetized. […] Virus replication was monitored by determining the amount of virus recovered with vaginal swabs taken on day 7 after infection. […] The percent Lesion Inhibition was calculated as follows: 100-[(Sum of maximum lesion scores of treated group divided by the Sum of the scores of infected control)×100] (Table 5).

[3] = tested on: herpes simplex virus Type I; assay: as above; type: in vivo; conditions: guinea pigs
Experimental: as §1

[4] = tested on: Human colon cancer cells (LS174J); assay: Antitumor activity, colon cancer xenograft, topical treatment from day 1; conditions: 50 μl of 3% topically twice per day from day 1; after 28 days
From the text: Human colon cancer cells (LS174J, 4-5 mm^3 of tumor tissue was used in each mouse) were subcutaneously xenografted into nude mice (BALB).

[5] = tested on: Human breast cancer cells (BCAP-37); assay: Antitumor activity, breast cancer xenograft, topical treatment from day 1; conditions: 50 μl of 3% topically once per day from day 1; after 28 days
From the text: Human breast cancer cells (BCAP-37, 4-5 mm^3 of tumor tissue was used in each mouse) were subcutaneous xenografted into nude mice (BALB).

[6] = tested on: herpes simplex virus Type II; assay: Anti-Herpes activity, treated for 5 days, first treatment just after HSV infection; type: in vivo; conditions: guinea pigs
Experimental: (§2) The evaluation of anti-Herpes activity of these prodrugs was carried out using the method described by Kern, et al. [Antimicrob. Agents Chemother. 14, 817, (1978)].
(§3) In the second experiment, female guinea pigs (n=10) were anesthetized. Herpes simplex virus (Type I or Type II, about 10^5 plaque forming units were used) was applied intravaginally to the guinea pigs using a cotton swab. […] Virus replication was monitored by determining the amount of virus recovered with vaginal swabs taken on day 7 after infection. External lesions were scored daily for ten days using the following scale: 0, no lesion; 1, redness and swelling; 2, a few small vesicles; 3, several large vesicles; 4, large ulcers and necrosis; and 5, paralysis. The percent Lesion Inhibition was calculated as follows: 100−[(Sum of maximum lesion scores of treated group divided by the Sum of the scores of infected control)×100] (Table 6).

[7] = tested on: herpes simplex virus Type I; assay: as above; type: in vivo; conditions: guinea pigs
Experimental: as §2, §3

interferon production [8] = assay: Interferon inducing activity in guinea pigs (serum protection of fibroblasts from mengovirus); type: in vivo; conditions: serum 18 hours after treatment
Experimental: Without being bound by any mechanism, the ability to induce interferon production of the pro-drugs of the invention was evaluated in guinea pigs (n=10). Untreated guinea pigs provided controls.
Each test drug was administered to real back skin of a guinea pig at a specific dose of about 0.5-4.5 mg/kg respectively.
Each treated and control guinea pig was bled 18 hours after drug treatment and its serum was assayed for interferon activity. The serum was diluted and incubated with guinea pig fibroblast cells at 37° C. overnight in 96 well microtiter plates. The incubated cells were then challenged with an inoculum of mengovirus that was sufficient to kill untreated cells in two days. Two days after such challenge, the cells were examined both microscopically and after staining with crystal violet to determine whether the cells remained intact.
Table 4 contains the results of the study with activity/ml indicating the highest dilute on of serum that protected cells from virus challenge. Untreated guinea pigs provided controls.

interferon production [9] = assay: as above; type: in vivo; conditions: serum 18 hours after treatment; remark: listed apart in the source
[10] = tested on: Human breast cancer cells (BCAP-37)
From the text: Human breast cancer cells (BCAP-37, 3-4 mm^3 of tumor tissue was used in each mouse) were subcutaneously xenografted into nude mice (BALB).

[11] = tested on: herpes simplex virus Type II; assay: Anti-Herpes activity, treated for 5 days, first treatment 5 days after HSV infection; type: in vivo; conditions: guinea pigs
Experimental: as §2
(§4) In the third experiment, female guinea pigs (n=10) were anesthetized. The guinea pigs were then infected with herpes simplex virus (type I or Type II, about 10^5 plaque forming units were used) intravaginally using a cotton swab. […] External lesions were scored daily for ten days using the following scale: 0, no lesion; 1, redness and swelling; 2, a few small vesicles; 3, several large vesicles; 4, large ulcers and necrosis; and 5, paralysis. The percent Lesion Inhibition was calculated as follows: 100−[(Sum of maximum lesion scores of treated group divided by the Sum of the scores of infected control)×100] (Table 7).

[12] = tested on: herpes simplex virus Type I; assay: as above; type: in vivo; conditions: guinea pigs
Experimental: as §2, §4

[13] = Irritative effect or discomfort on skin of nude mice after topical application; type: in vivo; conditions: 0.1 ml of 3% in pH 7.4 phosphate buffer, back of nude mice, twice per day, 1 week
Experimental: Irritative effect or discomfort in the skin of mice of HPPs of 1H-imidazo[4,5-c]quinolin-4-amines or 1H-imidazo[4,5-c]quinolin-4-amine-related compounds was evaluated during a period of 1 week after the topical application of 0.1 ml of 3% of the respective test drug in pH 7.4 phosphate buffer (0.2 M) to the back of nude mice twice per day.

[14] = Conversion of HPPs to parent drugs in human plasma (half life); type: in vitro ADME; conditions: 37° C.
Experimental: HPPs of 1H-imidazo[4,5-c]quinolin-4-amines or 1H-imidazo[4,5-c]quinolin-4-amine-related compounds converted to the parent 1H-imidazo[4,5-c]quinolin-4-amines or 1H-imidazo[4,5-c]quinolin-4-amine-related compounds quickly in good yield in human plasma.
A HPP of 1H-imidazo[4,5-c]quinolin-4-amines or 1H-imidazo[4,5-c]quinolin-4-amine-related compound (0.05 mg) was dissolved in 0.1 ml of 0.2M pH 7.4 phosphate buffer. 1 ml of human plasma, preheated to 37° C., was added into the mixture. The mixture was kept in a water bath at 37° C., and at every 10 min intervals 0.2 ml of samples were withdrawn and added to 0.4 ml of methanol to precipitate the plasma protein. The samples were centrifuged for 5 min and analyzed by HPLC.

[15] = 0.5 mg/kg once per day for 3 days before HSV infection
[16] = 1.5 mg/kg once per day for 3 days before HSV infection
[17] = 4.5 mg/kg once per day for 3 days before HSV infection
[18] = 0.5 mg/kg once per day for 5 days
[19] = 1.5 mg/kg once per day for 5 days
[20] = 4.5 mg/kg once per day for 5 days
[21] = at day 42, treatment from day 21 (tumors 13±2 mm×12±3 mm), 50 μl of 3% topically once per day

## CC(C)Cn1cnc2c(N)nc3ccccc3c21.Cl [1-isobutyl-1H-imidazo[4,5-c]quinolin-4-amine hydrochloride, reference compound]
[1]; 3% suspension in ethanol/pH 7.4 phosphate buffer (0.2 M) 70/30
  In vitro Penetration Rate of Parent compounds (apparent flux): 0.005 mg/cm^2/h
[2]; [15]
  % Lesion inhibition of the parent drug, intravaginal, Herpes type II: 5%
  % Lesion inhibition of the parent drug, transdermal, Herpes type II: 2%
[2]; [16]
  % Lesion inhibition of the parent drug, intravaginal, Herpes type II: 28%
  % Lesion inhibition of the parent drug, transdermal, Herpes type II: 2%
[2]; [17]
  % Lesion inhibition of the parent drug, intravaginal, Herpes type II: 87%
  % Lesion inhibition of the parent drug, transdermal, Herpes type II: 48%
[3]; [15]
  % Lesion inhibition of the parent drug, intravaginal, Herpes type I: 4%
  % Lesion inhibition of the parent drug, transdermal, Herpes type I: 2%
[3]; [16]
  % Lesion inhibition of the parent drug, intravaginal, Herpes type I: 23%
  % Lesion inhibition of the parent drug, transdermal, Herpes type I: 3%
[3]; [17]
  % Lesion inhibition of the parent drug, intravaginal, Herpes type I: 85%
  % Lesion inhibition of the parent drug, transdermal, Herpes type I: 45%
[4]
  Tumor size, Human colon cancer, first dimension: 17 ± 2 mm ×
  Tumor size, Human colon cancer, second dimension: 15 ± 2 mm
  tumor incidence, human colon cancer: 100%
[5]
  Tumor size, Human breast cancer, first dimension: 12 ± 2 mm ×
  Tumor size, Human breast cancer, second dimension: 11 ± 2 mm
  tumor incidence, human breast cancer: 100%
[6]; [18]
  % Lesion inhibition of the parent drug, intravaginal, Herpes type II: 2%
  % Lesion inhibition of the parent drug, transdermal, Herpes type II: 2%
[6]; [19]
  % Lesion inhibition of the parent drug, intravaginal, Herpes type II: 21%
  % Lesion inhibition of the parent drug, transdermal, Herpes type II: 6%
[6]; [20]
  % Lesion inhibition of the parent drug, intravaginal, Herpes type II: 82%
  % Lesion inhibition of the parent drug, transdermal, Herpes type II: 54%
[7]; [18]
  % Lesion inhibition of the parent drug, intravaginal, Herpes type I: 2%
  % Lesion inhibition of the parent drug, transdermal, Herpes type I: 2%
[7]; [19]
  % Lesion inhibition of the parent drug, intravaginal, Herpes type I: 17%
  % Lesion inhibition of the parent drug, transdermal, Herpes type I: 7%
[7]; [20]
  % Lesion inhibition of the parent drug, intravaginal, Herpes type I: 78%
  % Lesion inhibition of the parent drug, transdermal, Herpes type I: 52%
Interferon production [8]; 0.5 mg/kg once
  Interferon level of the parent drug, transdermal: 198 activity/ml
Interferon production [8]; 1.5 mg/kg once
  Interferon level of the parent drug, transdermal: 776 activity/ml
Interferon production [8]; 4.5 mg/kg once
  Interferon level of the parent drug, transdermal: 2,785 activity/ml
Interferon production [9]; 0.5 mg/kg once
  Interferon level of the parent drug, intravaginal: 385 activity/ml
Interferon production [9]; 1.5 mg/kg once
  Interferon level of the parent drug, intravaginal: 2,982 activity/ml
Interferon production [9]; 4.5 mg/kg once
  Interferon level of the parent drug, intravaginal: 28,982 activity/ml
[10]; [21]
  tumor size, first dimension: 17±2 mm
  tumor size, second dimension: 15±2 mm
[10]; up to day 70, 50 μl of 3% topically once per day from day 21
  death of mice: all mice died by day 70
[11]; [18]
  % Lesion inhibition of the parent drug, intravaginal, Herpes type II: 2%
  % Lesion inhibition of the parent drug, transdermal, Herpes type II: 2%
[11]; [19]
  % Lesion inhibition of the parent drug, intravaginal, Herpes type II: 2%
  % Lesion inhibition of the parent drug, transdermal, Herpes type II: 2%
[11]; [20]
  % Lesion inhibition of the parent drug, intravaginal, Herpes type II: 44%
  % Lesion inhibition of the parent drug, transdermal, Herpes type II: 24%
[12]; [18]
  % Lesion inhibition of the parent drug, intravaginal, Herpes type I: 2%
  % Lesion inhibition of the parent drug, transdermal, Herpes type I: 2%
[12]; [19]
  % Lesion inhibition of the parent drug, intravaginal, Herpes type I: 2%
  % Lesion inhibition of the parent drug, transdermal, Herpes type I: 2%
[12]; [20]
  % Lesion inhibition of the parent drug, intravaginal, Herpes type I: 37%
  % Lesion inhibition of the parent drug, transdermal, Herpes type I: 22%

## CCCCn1cnc2c(NC(=O)CNC)nc3ccccc3c21.Cl [sarcosine 1-butyl-1H-imidazo[4,5-c]quinolin-4-amide hydrochloride]
[1]
  In vitro Penetration Rate of HPPs (apparent flux): 0.13 mg/cm^2/h
[13]
  signs of irritative effect or discomfort in the skin: None of any signs of irritative effect or discomfort was observed
[14]
  Half life of HPPs in plasma: 25 ± 2 min

## sarcosine 1-benzyl-1H-imidazo[4,5-c]quinolin-4-amide hydrochloride
[1]
  In vitro Penetration Rate of HPPs (apparent flux): 0.16 mg/cm^2/h
[13]
  signs of irritative effect or discomfort in the skin: None of any signs of irritative effect or discomfort was observed
[14]
  Half life of HPPs in plasma: 29 ± 1 min
